Results published in US20240108632A1, “PHARMACEUTICAL COMPOSITION FOR ADMINISTRATION AS OPHTHALMIC DROP TO PATIENT REQUIRING OPTIC NERVE PROTECTION” (PINOTBIO, INC., priority 2020, published 2024).
≈ marks a conversion by molar mass, not a printed value. Where “and” joins values, the source holds several entries; their conditions need not be identical. Equal entries are not always repeated.

What was measured:
[1] = test system: New Zealand White rabbit ocular hypertension model animals; test: IOP-lowering efficacy in rabbit ocular hypertension model (scleral vein ligation); assay type: in vivo
Protocol: This study was conducted in male New Zealand White rabbit ocular hypertension model animals (intraocular pressure ≥17 mmHg) induced by scleral vein ligation to determine the effectiveness of KR-67607 eye drops in reducing ocular hypertension after repeated twice daily ophthalmic administration for 11 days.
Sterile physiological saline (negative control), Xalatan, Timoptic, Trusopt, Xalacom, and KR-67607 eye drops were administered twice daily for 11 days, and mortality and general symptoms were monitored, body weight was measured, feed intake was measured, and intraocular pressure was measured.

[2] = test system: DBA/2 mice; test: Retinal electroretinogram in glaucoma mouse model; assay type: in vivo; conditions: after 8 weeks; right eye only; 0.3 log cd×s/m^2 stimulation; high-dose; transient
Protocol: […] was performed according to the manufacturer's instructions after mice were anesthetized by instilling 20 μl of paracaine eye drops 0.5% in both eyes. The electrodes were placed on the scalp, tail, and cornea, respectively, and a certain amount of monochromatic white light stimulation was applied to perform retinal electroretinography. The response value of the stimulated retina and the amplitude from the crest of the a-wave to the peak of the b-wave were measured and evaluated as an indicator of retinal function.
To determine the effect of KR-67607 on retinal dysfunction and optic nerve damage, the electroretinograms of mice in the study were measured at 4-week intervals for 16 weeks. The electroretinograms were quantified by analyzing responses obtained by exposing the left and right eyes of the mice to −0.9, 0.3, and 1.2 log cd×s/m^2 of light, respectively. […] Before drug administration, there was no significant difference in retinal electroretinograms between the control, drug, and positive control groups. […] This effect was only transient at week 8, and no significant difference was seen from week 12.

[3] = test system: cynomolgus macaque model of glaucoma; test: Funduscopy in cynomolgus macaque model of glaucoma; assay type: in vivo
Protocol: Three weeks before the first laser trabeculoplasty, IOP was measured via a tomometer (SPHPR-320-61), once per week for three weeks. The first laser trabeculoplasty was performed in one eye for each macaque. Two weeks later, laser trabeculoplasty was repeated in the same eye (Week 0).
One week after the second laser trabeculoplasty (Week 1), IOP was measured and retinal nerve fiber layer (RNFL) thickness was measured via optical coherence tomography (OCT; RS3000 Advance, Nidek Co. Ltd., Gamagoori, Japan) (SPHPR- 320-58). The day after group assignment, the eyes were instilled with either vehicle, KR-67607 or brimonidine twice a day. On Day 1, the effect of treatment on IOP over time was measured before treatment and 1, 2, 4, and 8 hrs. after instillation. At the same time, blood samples were obtained. From the effects of dosing observed on Day 1, it was determined that 2 hrs. was a reasonable time time-to-test following instillation for subsequent observations.
Intraocular pressures were obtained at Weeks 2, 3, 4, 5, 7 and 9. Optical coherence tomography and color fundus photography (CFP) were performed at Weeks 1, 3, 5, 7, and 9 (SPHPR-320-56).

[4] = Appearance of HP-β-CD solutions of KR-67607 prepared at various pH; assay type: physicochemical; conditions: solution before entrapment under alkaline conditions; 3% HP-β-CD, 0.15% KR-67607
Protocol: HP-β-CD aqueous solutions of various pH were prepared by adding 3% (w/v) appropriate amount of HP-β-CD to 0.08M NaOH aqueous solution, tertiary purified water, and 1M HCl aqueous solution. To each of the above different HP-β-CD solutions, 0.15% (w/v) KR-67607 was added and stirred for 1 hour, and then potassium dihydrogen phosphate, sodium chloride, and povidone K90 were mixed to a concentration of 0.68%, 0.435%, and 1.2% (w/v), respectively, to dissolve completely. The pH of the solution was adjusted to around 7.4 with 0.1 N HCl or 0.1 N NaOH aqueous solution, and then the total volume was adjusted by adding sterile purified water. The prepared solution was filtered through a 0.2 μm PVDF filter and evaluated for comparative appearance against a black background, and the results are shown in FIG. 5.

[5] = Solubility by pH; assay type: physicochemical; conditions: stirred 12 hours
Protocol: 50 mL of pH 1 to 12 solution and tertiary purified water were taken precisely and placed in a 50 mL clear glass vial, and an excess amount (50 mg) of KR-67607 was weighed and added and stirred for 12 hours. Then, it was allowed to stand for 20 minutes to settle the undissolved excess of KR-67607, and the supernatant was taken and filtered through a 0.2 μm PVDF filter as a stock solution.
The standard was prepared by accurately weighing 15 mg of KR-67607, placing it in a 50 mL volumetric flask, using diluent (0.02 M potassium dihydrogen phosphate aqueous solution:acetonitrile=50:50 (v/v)) to completely dissolve/mark KR-67607, and filtering the liquid through a 0.45 μm PVDF filter as the standard.
The HPLC analysis conditions were as follows • Detector: ultraviolet-visible absorption spectrophotometer (measuring wavelength: 254 nm) • Column: 250×4.6 mm, 5μm, C18 packing column • Column temperature: 25±3° C. • Injection volume: 25 μL • Flow rate: 1 mL/min • Mobile Phase: Gradient

[6] = test system: GFAP, TNFα and BAX mRNA; test: RT-PCR of retinal tissue from ocular hypertension rabbits; assay type: in vivo, New Zealand White rabbit; conditions: after Example 33 dosing
Protocol: Following Example 33, in order to separate the sample (eyeball) to observe the glaucoma treatment effect on the drug in addition to the change in intraocular pressure caused by the drug administration, the eyeball was enucleated and about 0.2 mL of the aqueous humor was collected, and then the retina (including some choroid) was collected. The collected aqueous humor and retina were placed in 1.5 mL polypropylene tubes pre-marked with sample information, frozen in a deep freezer (approximately −80° C.) until analysis, and delivered to the test site for analysis.
RNA or proteins were extracted from the eyes and analyzed by RT-PCR and western blotting to compare the expression of genes and proteins that can confirm the glaucoma treatment effect or optic nerve protection effect.
RNA was extracted from the isolated retinal tissue and analyzed by RT-PCR to compare the expression of genes that can confirm the glaucoma treatment effect or retinal protection effect. The tissues were lysed using TrizolTM Reagent (Invitrogen, CA, US) to extract the soluble RNA, and the RNA was precipitated by adding isopropanol (100%; Sigma-aldrich, MO, US).
Subsequently, cDNA was synthesized from the isolated RNA using a cDNA synthesis kit (AccuPower RT Premix; Bioneer, KR) and used for RT-PCR. The primer information used for RT-PCR analysis is as follows.
The synthesized DNA strands were then analyzed after separation on a 1.5% agarose gel using gene-specific primers (FIG. 28).

SMILES: CC1CN(CC(=O)NC2C3CC4CC2CC(C(N)=O)(C4)C3)S(=O)(=O)N(c2c(Cl)cc(C(F)(F)F)cc2Cl)C1 [KR-67607, (1s, 3R,4s,5S,7s)-4-(2-(6-(2,6-dichloro-4-(trifluoromethyl)phenyl)-4-methyl-1,1-dioxido-1,2,6-thiadiazinan-2-yl)acetamido)adamantane-1-carboxamide]
- IOP reduction greater than in the negative control group ([1]; Day 5): 34.4%
- IOP reduction greater than in the negative control group ([1]; Day 8): 45.5%
- IOP compared to 100% of pre-dose IOP ([1]; day 5, twice daily ophthalmic administration): 49.0% and 60.1%
- greater IOP reduction than the Xalacom treatment group ([1]; day 8): 3.6%
- retinal electroretinograms compared to control group [2]: significant increase
- animals with small optic discs compared to G1 in the glaucomatous eyes ([3]; Week 5): four of six animals
- animals with a small or lesser degree of cupping ([3]; Week 9): three animals
- entrapment ability of HP-β-CD for KR-67607 (appearance, FIG. 5) [4]: enhanced
- Solubility ([5]; Purified water): 18.83 µg/mL (≈ 31.5 µM)
- Solubility ([5]; pH 1 solution): 47.83 µg/mL (≈ 80.1 µM)
- Solubility ([5]; pH 3 solution): 46.08 µg/mL (≈ 77.1 µM)
- Solubility ([5]; pH 5 solution): 42.52 µg/mL (≈ 71.2 µM)
- Solubility ([5]; pH 6 solution): 43.61 µg/mL (≈ 73 µM)
- Solubility ([5]; pH 7 solution): 43.77 µg/mL (≈ 73.3 µM)
- Solubility ([5]; pH 8 solution): 41.95 µg/mL (≈ 70.2 µM)
- Solubility ([5]; pH 9 solution): 45.97 µg/mL (≈ 76.9 µM)
- Solubility ([5]; pH 10 solution): 44.53 µg/mL (≈ 74.5 µM)
- Solubility ([5]; pH 12 solution): 55.32 µg/mL (≈ 92.6 µM)
- mRNA expression level of BAX in retinal tissues [6]: tended to decrease
- mRNA expression level of GFAP in retinal tissues [6]: tended to decrease
- mRNA expression level of TNFa in retinal tissues [6]: tended to decrease
